# Target: T1, hQ23 (HEK-293 cell line stably transfected with one of the members of the KCNQ family) (Homo sapiens, UniProt O43525+O43526)
# T1 construct: expressed in transfected cells; host or cells: HEK-293, stably transfected
# Assay: Thallium flux assay for KCNQ channel blockers (FLIPR, BTC dye)
# Type: cell-based
# Details: Table 2; thallium flux, HEK-293
# Description: Thallium Flux Assay for KCNQ channel blockers. Approximately 20,000 cells/well of an HEK-293 cell line stably transfected with one of the members of the KCNQ family were plated into clear-bottom, black-walled, poly-D-lysine coated, 384 well assay plates in 20 μl/well of low chloride plating medium. Low chloride plating medium was composed of the following: sodium gluconate, 109 mM; potassium gluconate, 5.4 mM; hemi-calcium gluconate, 3.6 mM; magnesium sulfate, 0.8 mM; sodium bicarbonate, 26.2 mM; sodium phosphate monobasic, 1.2 mM; glutamine, 2 mM; glucose, 5 mM; HEPES (pH 7.3) 10 mM, 10× concentration of vitamins (Gibco/LifeTechnologies catalog #11120-052) and 1× concentration of amino acids (Gibco/LifeTechnologies catalog #11130-051).
# Following overnight incubation in a 5% CO2 incubator at 37° C., the cells in the plates were loaded with 20 μl/well of a dye loading solution containing the acetomethoxy ester of the thallium-sensitive fluorescent dye BTC, BTC-AM (2 μM) and pluronic acid (0.02% w/v) in chloride free assay buffer. Chloride free assay buffer was composed of the following: sodium gluconate, 140 mM; potassium gluconate, 2.5 mM; hemi-calcium gluconate, 6 mM; hemi-magnesium gluconate, 2 mM; glucose, 5 mM; HEPES (pH 7.3), 10 mM.
# Following incubation in the dye loading solution for from 45–90 min at room temperature, the dye loading solution was removed by aspiration and replaced with 40 μl/well of chloride free assay buffer.
# Prior to addition to cell plates, test compound and standard compounds were dissolved in DMSO to 3 mM concentration. Compounds were then diluted from the 3 mM stock to 100-fold over the final assay concentration in DMSO. Finally, compounds in DMSO were diluted from 100-fold over the final assay concentration to 5-fold over the final assay concentration in chloride free assay buffer.
# Ten μl/well of compounds at 5-fold over the final assay concentration were then added to the cell plates. This represents a 1:5 dilution, yielding the final test concentration. The wells used for test compounds were A1–P20. Wells A21–P22 contained a standard ‘blocker’ and a fully efficacious concentration (positive control). Wells A23–P24 contained chloride free assay buffer containing 1% DMSO (negative control).
# Following addition of test compounds, the plates were loaded onto the Molecular Devices FLIPR. The 488 nm line of the argon laser was used to excite the BTC and the emission filter was a 540(+/−30) nm. Images were collected at 1 Hz. Ten seconds of baseline were collected and then the FLIPR was used to add 13 μl/well of a stimulus buffer composed of Tl2SO4, 25 mM; sodium gluconate, 30 mM; potassium sulfate, 50 mM; hemi-calcium gluconate, 6 mM; hemi-magnesium gluconate, 2 mM; glucose, 5 mM; HEPES (pH 7.3), 10 mM in chloride free assay buffer. Images were collected for an additional 60 seconds.
# For data analysis, the amplitude of the average of the negative controls was subtracted from all wells. The amplitudes of the test compounds were then compared to the value of four standard deviations of the negative control wells. The lowest concentration of a test compound sufficient to generate a signal amplitude greater than or equal to four standard deviations from the amplitude of the negative controls was defined as the minimal active concentration.
# For generating IC50 values, compounds were serially diluted in 1:3 volume increments to produce a 10 point concentration series. IC50 values were calculated by fitting the resulting amplitudes to a single-site logistic equation. IC50 was defined as the concentration of test compound required to yield 50% of the response of the positive control.
# T1 sequence (O43526 whole entry): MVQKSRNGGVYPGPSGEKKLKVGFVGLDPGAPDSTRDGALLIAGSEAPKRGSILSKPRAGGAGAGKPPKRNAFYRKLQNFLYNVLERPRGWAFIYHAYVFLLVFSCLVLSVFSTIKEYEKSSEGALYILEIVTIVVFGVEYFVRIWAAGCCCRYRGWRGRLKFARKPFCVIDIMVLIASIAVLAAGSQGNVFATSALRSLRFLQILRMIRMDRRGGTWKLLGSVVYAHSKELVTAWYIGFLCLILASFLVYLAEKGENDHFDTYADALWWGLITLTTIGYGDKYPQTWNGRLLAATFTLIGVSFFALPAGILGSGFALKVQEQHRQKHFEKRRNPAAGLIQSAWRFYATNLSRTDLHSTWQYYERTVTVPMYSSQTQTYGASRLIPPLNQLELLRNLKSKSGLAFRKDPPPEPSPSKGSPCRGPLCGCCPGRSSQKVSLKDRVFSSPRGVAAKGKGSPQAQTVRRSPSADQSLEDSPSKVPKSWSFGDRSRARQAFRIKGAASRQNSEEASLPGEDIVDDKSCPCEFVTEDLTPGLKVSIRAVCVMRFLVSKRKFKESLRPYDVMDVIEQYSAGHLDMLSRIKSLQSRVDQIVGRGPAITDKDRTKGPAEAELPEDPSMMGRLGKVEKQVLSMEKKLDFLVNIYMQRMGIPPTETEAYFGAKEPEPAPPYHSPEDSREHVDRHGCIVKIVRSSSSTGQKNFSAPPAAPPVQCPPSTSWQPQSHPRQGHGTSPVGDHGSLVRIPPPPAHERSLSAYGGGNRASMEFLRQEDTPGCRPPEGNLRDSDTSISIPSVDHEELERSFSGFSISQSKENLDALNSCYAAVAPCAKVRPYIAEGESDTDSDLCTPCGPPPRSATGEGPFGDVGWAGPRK
# T1 sequence (O43525 whole entry): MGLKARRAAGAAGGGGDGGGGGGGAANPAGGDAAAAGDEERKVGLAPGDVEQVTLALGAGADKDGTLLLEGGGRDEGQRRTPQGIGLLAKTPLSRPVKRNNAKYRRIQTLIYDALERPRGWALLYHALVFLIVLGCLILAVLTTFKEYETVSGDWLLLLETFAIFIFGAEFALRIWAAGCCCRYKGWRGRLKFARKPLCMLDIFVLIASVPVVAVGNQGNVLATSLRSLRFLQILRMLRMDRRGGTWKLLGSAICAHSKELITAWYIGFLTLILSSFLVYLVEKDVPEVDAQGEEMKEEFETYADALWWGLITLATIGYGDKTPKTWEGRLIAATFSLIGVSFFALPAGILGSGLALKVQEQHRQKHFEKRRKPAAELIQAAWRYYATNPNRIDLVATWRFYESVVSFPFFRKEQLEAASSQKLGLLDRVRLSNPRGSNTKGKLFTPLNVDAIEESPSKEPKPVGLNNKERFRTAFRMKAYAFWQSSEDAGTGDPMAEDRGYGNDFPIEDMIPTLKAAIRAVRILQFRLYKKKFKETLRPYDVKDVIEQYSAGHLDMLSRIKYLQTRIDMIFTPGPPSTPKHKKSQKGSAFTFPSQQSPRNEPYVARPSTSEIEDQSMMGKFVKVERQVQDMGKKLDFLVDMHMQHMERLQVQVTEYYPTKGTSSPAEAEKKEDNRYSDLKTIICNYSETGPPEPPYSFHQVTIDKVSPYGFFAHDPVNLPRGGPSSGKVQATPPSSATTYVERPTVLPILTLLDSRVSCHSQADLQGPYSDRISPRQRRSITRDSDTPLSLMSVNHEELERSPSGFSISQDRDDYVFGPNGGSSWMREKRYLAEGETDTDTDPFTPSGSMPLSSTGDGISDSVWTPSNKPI
row,EC50,Structure (SMILES)
1,297 nM,"CC1CCN(c2ncc(C(=O)NCc3cc(F)cc(C(F)(F)F)c3)c(C3(c4ccccc4)CC3)n2)CC1 [Example 48, 5-pyrimidinecarboxamide, N-[[3-fluoro-5-(trifluoromethyl)phenyl]methyl]-2-(4-methyl-1-piperidinyl)-4-(1-phenylcyclopropyl)-]"
2,575 nM,"CC1CCC(Nc2ncc(C(=O)NC(C)c3ccc(F)cc3)c(C3(c4ccccc4)CC3)n2)CC1 (stereo not shown) [Example 49, 5-pyrimidinecarboxamide, N-[1-(4-fluorophenyl)ethyl]-2-[(4-methylcyclohexyl)amino]-4-(1-phenylcyclopropyl)-]"
3,673 nM,"CC1CCCN(c2ncc(C(=O)NC(C)c3ccc(F)cc3)c(C3(c4ccccc4)CC3)n2)C1 (stereo not shown) [Example 50, 5-pyrimidinecarboxamide, N-[1-(4-fluorophenyl)ethyl]-2-(3-methyl-1-piperidinyl)-4-(1-phenylcyclopropyl)-]"
4,672 nM,"CC1CCN(c2ncc(C(=O)NC(C)c3ccc(F)cc3)c(C3(c4ccccc4)CC3)n2)CC1 (stereo not shown) [Example 51, 5-pyrimidinecarboxamide, N-[1-(4-fluorophenyl)ethyl]-2-(4-methyl-1-piperidinyl)-4-(1-phenylcyclopropyl)-]"

# Same assay, conditions: Table 3; thallium flux, HEK-293
row,Structure (SMILES),EC50
1,"CCC(C)Nc1ncc(C(=O)N(CC)CC)c(C2(c3ccc(Cl)cc3)CCC2)n1 (stereo not shown) [Example 52, 5-pyrimidinecarboxamide, 4-[1-(4-chlorophenyl)cyclobutyl]-N,N-diethyl-2-[(1-methylpropyl)amino]-]",211 nM
2,"CCN(CC)C(=O)c1cnc(NCCN(C)C)nc1C1(c2ccc(Cl)cc2)CCC1 [Example 53, 5-pyrimidinecarboxamide, 4-[1-(4-chlorophenyl)cyclobutyl]-2-[[2-(dimethylamino)ethyl]amino]-N,N-diethyl-]",558 nM
3,"CN(C)CCNc1ncc(C(=O)N2CCc3ccccc3C2)c(C2(c3ccc(Cl)cc3)CCC2)n1 [Example 54, isoquinoline, 2-[[4-[1-(4-chlorophenyl)cyclobutyl]-2-[[2-(dimethylamino)ethyl]amino]-5-pyrimidinyl]carbonyl]-1,2,3,4-tetrahydro-]",475 nM
4,"CN(C)CCNc1ncc(C(=O)N(C)CCc2ccccc2)c(C2(c3ccc(Cl)cc3)CCC2)n1 [Example 55, 5-pyrimidinecarboxamide, 4-[1-(4-chlorophenyl)cyclobutyl]-2-[[2-(dimethylamino)ethyl]amino]-N-methyl-N-(2-phenylethyl)-]",321 nM
5,"O=C(NCc1cccc2ccccc12)c1cnc(NC2CC2)nc1C1(c2ccc(Cl)cc2)CCC1 [Example 60, 5-pyrimidinecarboxamide, 4-[1-(4-chlorophenyl)cyclobutyl]-2-(cyclopropylamino)-N-(1-naphthalenylmethyl)-]",614 nM

# The next lines start with the values.
row,EC50,Structure (SMILES)
1,719 nM,"O=C(NCc1ccc2c(c1)OCO2)c1cnc(N2CCCC2)nc1C1(c2ccc(Cl)cc2)CCC1 [Example 56, 5-pyrimidinecarboxamide, N-(1,3-benzodioxol-5-ylmethyl)-4-[1-(4-chlorophenyl)cyclobutyl]-2-(1-pyrrolidinyl)-]"
2,745 nM,"CN1CCN(c2ncc(C(=O)NCc3ccc4c(c3)OCO4)c(C3(c4ccc(Cl)cc4)CCC3)n2)CC1 [Example 57, 5-pyrimidinecarboxamide, N-(1,3-benzodioxol-5-ylmethyl)-4-[1-(4-chlorophenyl)cyclobutyl]-2-(4-methyl-1-piperazinyl)-]"
3,90 nM,"CC1CCN(c2ncc(C(=O)NCc3ccc4c(c3)OCO4)c(C3(c4ccc(Cl)cc4)CCC3)n2)CC1 [Example 58, 5-pyrimidinecarboxamide, N-(1,3-benzodioxol-5-ylmethyl)-4-[1-(4-chlorophenyl)cyclobutyl]-2-(4-methyl-1-piperidinyl)-]"
4,405 nM,"CCC(C)Nc1ncc(C(=O)NCc2ccc3c(c2)OCO3)c(C2(c3ccc(Cl)cc3)CCC2)n1 (stereo not shown) [Example 59, 5-pyrimidinecarboxamide, N-(1,3-benzodioxol-5-ylmethyl)-4-[1-(4-chlorophenyl)cyclobutyl]-2-[(1-methylpropyl)amino]-]"
5,79 nM,"O=C(NCc1cccc2ccccc12)c1cnc(N2CCCC2)nc1C1(c2ccc(Cl)cc2)CCC1 [Example 61, 5-pyrimidinecarboxamide, 4-[1-(4-chlorophenyl)cyclobutyl]-N-(1-naphthalenylmethyl)-2-(1-pyrrolidinyl)-]"
6,39 nM,"CC1CCCN(c2ncc(C(=O)NCc3cccc4ccccc34)c(C3(c4ccc(Cl)cc4)CCC3)n2)C1 (stereo not shown) [Example 62, 5-pyrimidinecarboxamide, 4-[1-(4-chlorophenyl)cyclobutyl]-2-(3-methyl-1-piperidinyl)-N-(1-naphthalenylmethyl)-]"
7,14 nM,"CC1CCCN(c2ncc(C(=O)NCc3ccc(Cl)cc3Cl)c(C3(c4ccc(Cl)cc4)CCC3)n2)C1 (stereo not shown) [Example 63, 5-pyrimidinecarboxamide, 4-[1-(4-chlorophenyl)cyclobutyl]-N-[(2,4-dichlorophenyl)methyl]-2-(3-methyl-1-piperidinyl)-]"
8,34 nM,"CC1CCN(c2ncc(C(=O)NCc3ccc(Cl)cc3Cl)c(C3(c4ccc(Cl)cc4)CCC3)n2)CC1 [Example 64, 5-pyrimidinecarboxamide, 4-[1-(4-chlorophenyl)cyclobutyl]-N-[(2,4-dichlorophenyl)methyl]-2-(4-methyl-1-piperidinyl)-]"
9,56 nM,"CC1CCC(Nc2ncc(C(=O)NCc3ccc(F)cc3F)c(C3(c4ccc(Cl)cc4)CCC3)n2)CC1 (stereo not shown) [Example 65, 5-pyrimidinecarboxamide, 4-[1-(4-chlorophenyl)cyclobutyl]-N-[(2,4-difluorophenyl)methyl]-2-[(4-methylcyclohexyl)amino]-]"
10,10 nM,"CC1CCCN(c2ncc(C(=O)NCc3cc(F)cc(C(F)(F)F)c3)c(C3(c4ccc(Cl)cc4)CCC3)n2)C1 (stereo not shown) [Example 66, 5-pyrimidinecarboxamide, 4-[1-(4-chlorophenyl)cyclobutyl]-N-[[3-fluoro-5-(trifluoromethyl)phenyl]methyl]-2-(3-methyl-1-piperidinyl)-]"
11,10 nM,"CC1CCN(c2ncc(C(=O)NCc3cc(F)cc(C(F)(F)F)c3)c(C3(c4ccc(Cl)cc4)CCC3)n2)CC1 [Example 67, 5-pyrimidinecarboxamide, 4-[1-(4-chlorophenyl)cyclobutyl]-N-[[3-fluoro-5-(trifluoromethyl)phenyl]methyl]-2-(4-methyl-1-piperidinyl)-]"
12,128 nM,"CC1CCCN(c2ncc(C(=O)NC(C)c3ccc(F)cc3)c(C3(c4ccc(Cl)cc4)CCC3)n2)C1 (stereo not shown) [Example 68, 5-pyrimidinecarboxamide, 4-[1-(4-chlorophenyl)cyclobutyl]-N-[1-(4-fluorophenyl)ethyl]-2-(3-methyl-1-piperidinyl)-]"

# Same assay, conditions: hQ23 cells, thallium flux
row,EC50,Structure (SMILES)
1,778 nM,"CN(Cc1ccccc1)C(=O)c1cnc(N2CCCC2)nc1C1(c2ccccc2)CCCC1 [Example 69, 5-pyrimidinecarboxamide, N-methyl-4-(1-phenylcyclopentyl)-N-(phenylmethyl)-2-(1-pyrrolidinyl)-]"
2,270 nM,"CC1CCN(c2ncc(C(=O)N(C)Cc3ccccc3)c(C3(c4ccccc4)CCCC3)n2)CC1 [Example 70, 5-pyrimidinecarboxamide, N-methyl-2-(4-methyl-1-piperidinyl)-4-(1-phenylcyclopentyl)-N-(phenylmethyl)-]"
3,718 nM,"CN(Cc1ccccc1)C(=O)c1cnc(NC2CCCC2)nc1C1(c2ccccc2)CCCC1 [Example 71, 5-pyrimidinecarboxamide, 2-(cyclopentylamino)-N-methyl-4-(1-phenylcyclopentyl)-N-(phenylmethyl)-]"
4,576 nM,"CCN(CC)C(=O)c1cnc(NC2CCC(C)CC2)nc1C1(c2ccccc2)CCCC1 (stereo not shown) [Example 72, 5-pyrimidinecarboxamide,N,N-diethyl-2-[(4-methylcyclohexyl)amino]-4-(1-phenylcyclopentyl)-]"

# Reference: patent US7091202B2, “4-arylspirocycloalkyl-2-aminopyrimidine carboxamide KCNQ potassium channel modulators” (Bristol-Myers Squibb Company, priority 2004, dated 2006)
